# Marks after values point to notes of the source that are not given here.
# What was measured:
# [1] = system: intensive care unit patients with severe septic shock; settings: esmolol group; […] in the control group; cited from earlier work
# [2] = system: healthy volunteers; assay: Phase 1 MAD study: gastric emptying by scintigraphic imaging; assay type: in vivo, human; settings: for Gastric Emptying Day 1 Improvement Over Baseline T25% / Gastric Emptying Day 1 Improvement Over Baseline T50%: single dose Day 1; for acceleration of liquid meal emptying (GET50) vs pre-dosing baseline: TID
# Protocol: Healthy male and female volunteers aged 18 to 55 years participated in the trial. […] The doses studied were SAD: 600, 1200, and 900 μg/kg and MAD: 300, 150, and 80 μg/kg q8H for seven days.
# [3] = system: patients with post-operative ileus; settings: Phase 2, once daily dosing for up to 7 days; cited from earlier work
# [4] = system: healthy volunteers; assay: Phase 1 SAD/MAD study: growth hormone levels; assay type: in vivo, human; settings: for GH level spike: 150 μg/kg TID
# Protocol: A randomized, double-blind, placebo-controlled, single and multiple ascending IV dose (SAD and MAD), sequential-group study to assess the safety, tolerability, PK, and PD of ulimorelin in healthy subjects was initiated and conducted as follows.
# Levels on Day 1 were meaningfully greater than those seen in placebo subjects at any timepoint (pooled placebo mean GH levels were 3.2 μg/L and ranged from about 0.1 to 11 μg/L). Over time, the spikes in GH levels diminished but remained measureable and within or slightly greater than the expected physiological range of the assay (0-0.8 μg/L for males and 0-8 μg/L for females).
# [5] = system: diabetic gastroparesis patients; settings: cited from earlier work
compound,measurement,setting,value
COC(=O)CCc1ccc(OCC(O)CNC(C)C)cc1 (centres unmarked) [esmolol],twenty-eight day mortality,[1],49.4%
ulimorelin,Gastric Emptying Day 4 Improvement Over Baseline T25%,[2]; 80 μg/kg q8H,35%
same,Gastric Emptying Day 4 Improvement Over Baseline T50%,[2]; 80 μg/kg q8H,26%
same,Gastric Emptying Day 1 Improvement Over Baseline T25%,[2]; 80 μg/kg,30%
same,Gastric Emptying Day 1 Improvement Over Baseline T50%,[2]; 80 μg/kg,14%
same,Gastric Emptying Day 4 Improvement Over Baseline T25%,[2]; 150 μg/kg q8H,25%
same,Gastric Emptying Day 4 Improvement Over Baseline T50%,[2]; 150 μg/kg q8H,23%*
same,Gastric Emptying Day 1 Improvement Over Baseline T25%,[2]; 150 μg/kg,45%*
same,Gastric Emptying Day 1 Improvement Over Baseline T50%,[2]; 150 μg/kg,34%*
same,Gastric Emptying Day 4 Improvement Over Baseline T25%,[2]; 300 μg/kg q8H,31%
same,Gastric Emptying Day 4 Improvement Over Baseline T50%,[2]; 300 μg/kg q8H,27%*
same,Gastric Emptying Day 1 Improvement Over Baseline T25%,[2]; 300 μg/kg,54%*
same,Gastric Emptying Day 1 Improvement Over Baseline T50%,[2]; 300 μg/kg,46%*
same,acceleration of liquid meal emptying (GET50) vs pre-dosing baseline,"[2]; Day 1, both treatment groups",greater than 30%
same,acceleration of liquid meal emptying (GET50) vs pre-dosing baseline,"[2]; Day 4, both treatment groups",> 20%
same,time to first bowel movement (BM),[3],shortened time to first bowel movement
same,Mean Max GH,"[4]; Female, 150 μg/kg, Day 1",18.8 μ/L
same,Mean Max GH,"[4]; Female, 150 μg/kg, Day 4",10.7 μ/L
same,Mean Max GH,"[4]; Female, 150 μg/kg, Day 7",6.2 μ/L
same,Mean Max GH,"[4]; Female, 300 μg/kg, Day 1",41.5 μ/L
same,Mean Max GH,"[4]; Female, 300 μg/kg, Day 4",31.5 μ/L
same,Mean Max GH,"[4]; Female, 600 μg/kg, Day 1",77.9 μ/L
same,Mean Max GH,"[4]; Female, 900 μg/kg, Day 1",83.4 μ/L
same,Mean Max GH,"[4]; Female, 1200 μg/kg, Day 1",76.0 μ/L
same,Mean Max GH,"[4]; Male, 150 μg/kg, Day 1",11.4 µg/L
same,Mean Max GH,"[4]; Male, 150 μg/kg, Day 4",2.4 µg/L
same,Mean Max GH,"[4]; Male, 150 μg/kg, Day 7",1.7 µg/L
same,Mean Max GH,"[4]; Male, 300 μg/kg, Day 1",18.7 µg/L
same,Mean Max GH,"[4]; Male, 300 μg/kg, Day 4",4.0 µg/L
same,Mean Max GH,"[4]; Male, 300 μg/kg, Day 7",3.0 µg/L
same,Mean Max GH,"[4]; Male, 600 μg/kg, Day 1",41.7 µg/L
same,Mean Max GH,"[4]; Male, 900 μg/kg, Day 1",79.7 µg/L
same,Mean Max GH,"[4]; Male, 1200 μg/kg, Day 1",53.0 µg/L
same,Mean Max GH,"[4]; Person, 300 μg/kg, Day 7, n = 1",11.3* μ/L
same,GH level spike,"[4]; females, Day 1",~19 µg/L
same,GH level spike,"[4]; males, Day 1",~11 µg/L
same,gastric emptying,"[5]; Phase 2, 10 patients with diabetic gastroparesis, 30 min IV infusion once daily",accelerated gastric emptying of solid and liquid food
same,GCSI scores,[5]; additional Phase 2 study of diabetic gastroparesis patients,improvements in GCSI Loss of Appetite and Vomiting scores
